Results as given in patent US6670446B1, “N1 modified glycopeptides” (Eli Lilly and Company, priority 1998, dated 2003).

How the values were obtained:
Type in all cases: cell-based
[1] = test system: Resistant Enterococcus faecium and faecalis; test: MIC, standard broth micro-dilution assay, Resistant; conditions: geometric mean of 4-6 isolates
Description: (§1) The antibacterial efficacy of the present compounds is illustrated by Table III. The minimal inhibitory concentrations (MICs) were determined using a standard broth micro-dilution assay.

[2] = test system: Sensitive Enterococcus faecium and faecalis; test: MIC, standard broth micro-dilution assay, Sensitive; conditions: geometric mean of 4-6 isolates
Description: as §1

[3] = test system: Staphylococcus aureus 446; test: MIC, standard broth micro-dilution assay, SA 446
Description: as §1

[4] = test system: Staphylococcus aureus 489; test: MIC, standard broth micro-dilution assay, SA 489
Description: as §1

[5] = test system: Staphylococcus aureus 447; test: MIC, standard broth micro-dilution assay, SA 447
Description: as §1

[6] = test system: Staphylococcus aureus X400; test: MIC, standard broth micro-dilution assay, SA X400
Description: as §1

[7] = test system: Staphylococcus aureus X778; test: MIC, standard broth micro-dilution assay, SA X778
Description: as §1

[8] = test system: Staphylococcus aureus 491; test: MIC, standard broth micro-dilution assay, SA 491
Description: as §1

[9] = test system: Staphylococcus aureus S13E
Description: as §1

[10] = test system: Staphylococcus aureus SA1199; test: MIC, standard broth micro-dilution assay, SA 1199
Description: as §1

[11] = test system: Staphylococcus aureus SA1199A; test: MIC, standard broth micro-dilution assay, SA 1199A
Description: as §1

[12] = test system: Staphylococcus haemolyticus 105; test: MIC, standard broth micro-dilution assay, SH 105
Description: as §1

[13] = test system: Staphylococcus haemolyticus 415; test: MIC, standard broth micro-dilution assay, SH 415
Description: as §1

[14] = test system: Staphylococcus epidermidis 270; test: MIC, standard broth micro-dilution assay, SE 270
Description: as §1

[15] = test system: Enterococcus faecium 180; test: MIC, standard broth micro-dilution assay, EF 180
Description: as §1

[16] = test system: Enterococcus faecium 180-1; test: MIC, standard broth micro-dilution assay, EF 180-1
Description: as §1

[17] = test system: Enterococcus faecalis 2041; test: MIC, standard broth micro-dilution assay, EF 2041
Description: as §1

[18] = test system: Enterococcus faecalis 276; test: MIC, standard broth micro-dilution assay, EF 276
Description: as §1

[19] = test system: Enterococcus gallinarum 245; test: MIC, standard broth micro-dilution assay, EG 245
Description: as §1

[20] = test system: Haemophilus influenzae RD; test: MIC, standard broth micro-dilution assay, HFRD
Description: as §1

[21] = test system: Escherichia coli EC14; test: MIC, standard broth micro-dilution assay, EC 14
Description: as §1

| Structure (SMILES) | minimal inhibitory concentration (MIC), Resistant [1] | minimal inhibitory concentration (MIC), Sensitive [2] | minimal inhibitory concentration (MIC), SA 446 [3] | minimal inhibitory concentration (MIC), SA 489 [4] | minimal inhibitory concentration (MIC), SA 447 [5] | minimal inhibitory concentration (MIC), SA X400 [6] | minimal inhibitory concentration (MIC), SA X778 [7] | minimal inhibitory concentration (MIC), SA 491 [8] | minimal inhibitory concentration (MIC), SA S13E [9] | minimal inhibitory concentration (MIC), SA 1199 [10] | minimal inhibitory concentration (MIC), SA 1199A [11] | minimal inhibitory concentration (MIC), SH 105 [12] | minimal inhibitory concentration (MIC), SH 415 [13] | minimal inhibitory concentration (MIC), SE 270 [14] | minimal inhibitory concentration (MIC), EF 180 [15] | minimal inhibitory concentration (MIC), EF 180-1 [16] | minimal inhibitory concentration (MIC), EF 2041 [17] | minimal inhibitory concentration (MIC), EF 276 [18] | minimal inhibitory concentration (MIC), EG 245 [19] | minimal inhibitory concentration (MIC), HFRD [20] | also measured |
| --- | --- | --- | --- | --- | --- | --- | --- | --- | --- | --- | --- | --- | --- | --- | --- | --- | --- | --- | --- | --- | --- |
| CSCCC(NC(=O)OC(C)(C)C)C(=O)NC1C(=O)NC(CC(N)=O)C(=O)NC2C(=O)NC3C(=O)NC(C(=O)NC(C(=O)O)c4cc(O)cc(O)c4-c4cc3ccc4O)C(OC3CC(C)(N)C(O)C(C)O3)c3ccc(c(Cl)c3)Oc3cc2cc(c3OC2OC(CO)C(O)C(O)C2OC2CC(C)(NCc3ccc(-c4ccccc4)cc3)C(O)C(C)O2)Oc2ccc(cc2Cl)C1O [Example 15, N^1-(N-BOC-D-methionine) derivative of N^DISACC-(p-phenylbenzyl)desleucylA82846B] | 27 | 1.2 | 1 | 1 | 1 | 1 | 0.5 | 1 | 1 | 2 | 0.125 | 1 | 1 | 0.25 | 8 | ≦.06 | 0.25 | 0.5 | 1 | >64 | minimal inhibitory concentration (MIC), EC 14 [21]: >64 |
| CC1OC(OC2c3ccc(c(Cl)c3)Oc3cc4cc(c3OC3OC(CO)C(O)C(O)C3OC3CC(C)(NCc5ccc(-c6ccccc6)cc5)C(O)C(C)O3)Oc3ccc(cc3Cl)C(O)C(NC(=O)C3CCCN3C(=O)OC(C)(C)C)C(=O)NC(CC(N)=O)C(=O)NC4C(=O)NC3C(=O)NC2C(=O)NC(C(=O)O)c2cc(O)cc(O)c2-c2cc3ccc2O)CC(C)(N)C1O [Example 26, N^1-(N-BOC-D-proline) derivative of N^DISACCC-(p-phenylbenzyl)desleucylA82846B] | 23 | 0.76 | 2 | 0.5 | 1 | 0.5 | 0.5 | ≦.06 | 1 | 1 | 0.125 | 1 | 2 | 0.25 | 4 | ≦.06 | 0.25 | 1 | 0.5 | >64 | minimal inhibitory concentration (MIC), EC 14 [21]: >64 |
